± gives the expanded uncertainty stated by the source.
Assays:
[1] = 101.33 kPa, Liquid, Vibrating tube method
[2] = refractive index (Na D-line) (dimensionless); details: 101.33 kPa, Liquid, Standard Abbe refractometry
[3] = xn = mol fraction of the nth substance listed; details: 101 kPa, Liquid, Vibrating tube method
[4] = excess molar enthalpy (molar enthalpy of mixing); xn = mol fraction of the nth substance listed; details: 101 kPa, Liquid, Calvet calorimetry

CCCCOC=O [butyl methanoate]
Details	mass density, [1] [kg/m3]	refractive index, [2]
291.15 K	895.86 ± 1.2	1.3904 ± 0.0007
298.15 K	888.47 ± 1.2	1.3872 ± 0.0007

CCCCOC=O [butyl methanoate] + CCCCC
Details	excess molar enthalpy [kJ/mol]	mass density [kg/m3]
[3], 291.15 K, x1 = 0.0482	–	640.01 ± 0.28
[3], 291.15 K, x1 = 0.1029	–	654.1 ± 0.3
[3], 291.15 K, x1 = 0.1541	–	667.59 ± 0.31
[3], 291.15 K, x1 = 0.2028	–	680.41 ± 0.33
[3], 291.15 K, x1 = 0.2999	–	706.35 ± 0.36
[3], 291.15 K, x1 = 0.3486	–	719.53 ± 0.39
[3], 291.15 K, x1 = 0.453	–	747.88 ± 0.45
[3], 291.15 K, x1 = 0.5029	–	761.43 ± 0.49
[3], 291.15 K, x1 = 0.5974	–	786.96 ± 0.58
[3], 291.15 K, x1 = 0.7	–	814.79 ± 0.69
[3], 291.15 K, x1 = 0.8074	–	843.81 ± 0.84
[3], 291.15 K, x1 = 0.8966	–	868.4 ± 0.99
[3], 291.15 K, x1 = 0.9452	–	881.04 ± 1.1
[3], 291.15 K, x1 = 1	–	895.86 ± 1.2
[3], 298.15 K, x1 = 0.0584	–	635.57 ± 0.29
[3], 298.15 K, x1 = 0.1147	–	650.09 ± 0.3
[3], 298.15 K, x1 = 0.1936	–	670.91 ± 0.32
[3], 298.15 K, x1 = 0.301	–	699.46 ± 0.36
[3], 298.15 K, x1 = 0.343	–	710.8 ± 0.38
[3], 298.15 K, x1 = 0.3886	–	723.15 ± 0.41
[3], 298.15 K, x1 = 0.4521	–	740.45 ± 0.45
[3], 298.15 K, x1 = 0.4958	–	752.3 ± 0.48
[3], 298.15 K, x1 = 0.5442	–	765.49 ± 0.52
[3], 298.15 K, x1 = 0.6477	–	793.55 ± 0.63
[3], 298.15 K, x1 = 0.7529	–	822.18 ± 0.75
[3], 298.15 K, x1 = 0.8993	–	861.53 ± 0.98
[3], 298.15 K, x1 = 1	–	888.47 ± 1.2
[4], 291.15 K, x1 = 0.0661	0.324 ± 0.004	–
[4], 291.15 K, x1 = 0.1254	0.515 ± 0.005	–
[4], 291.15 K, x1 = 0.1836	0.667 ± 0.006	–
[4], 291.15 K, x1 = 0.2321	0.779 ± 0.007	–
[4], 291.15 K, x1 = 0.2846	0.854 ± 0.007	–
[4], 291.15 K, x1 = 0.3351	0.896 ± 0.008	–
[4], 291.15 K, x1 = 0.3832	0.919 ± 0.008	–
[4], 291.15 K, x1 = 0.4276	0.924 ± 0.008	–
[4], 291.15 K, x1 = 0.4704	0.915 ± 0.008	–
[4], 291.15 K, x1 = 0.5095	0.902 ± 0.008	–
[4], 291.15 K, x1 = 0.5587	0.872 ± 0.008	–
[4], 291.15 K, x1 = 0.6121	0.822 ± 0.007	–
[4], 291.15 K, x1 = 0.6666	0.745 ± 0.007	–
[4], 291.15 K, x1 = 0.7272	0.637 ± 0.006	–
[4], 291.15 K, x1 = 0.799	0.493 ± 0.005	–
[4], 291.15 K, x1 = 0.8702	0.318 ± 0.004	–
[4], 291.15 K, x1 = 0.9372	0.165 ± 0.003	–
[4], 298.15 K, x1 = 0.0471	0.313 ± 0.005	–
[4], 298.15 K, x1 = 0.0941	0.544 ± 0.005	–
[4], 298.15 K, x1 = 0.1606	0.74 ± 0.007	–
[4], 298.15 K, x1 = 0.2273	0.87 ± 0.008	–
[4], 298.15 K, x1 = 0.2903	0.954 ± 0.008	–
[4], 298.15 K, x1 = 0.3523	0.996 ± 0.009	–
[4], 298.15 K, x1 = 0.4102	1.004 ± 0.009	–
[4], 298.15 K, x1 = 0.4611	0.988 ± 0.008	–
[4], 298.15 K, x1 = 0.5095	0.959 ± 0.008	–
[4], 298.15 K, x1 = 0.5166	0.943 ± 0.008	–
[4], 298.15 K, x1 = 0.5673	0.905 ± 0.008	–
[4], 298.15 K, x1 = 0.6237	0.845 ± 0.007	–
[4], 298.15 K, x1 = 0.6862	0.742 ± 0.007	–
[4], 298.15 K, x1 = 0.754	0.632 ± 0.006	–
[4], 298.15 K, x1 = 0.8174	0.503 ± 0.005	–
[4], 298.15 K, x1 = 0.8803	0.341 ± 0.004	–
[4], 298.15 K, x1 = 0.9477	0.168 ± 0.003	–

CCOC=O [ethyl methanoate]
Details	mass density, [1] [kg/m3]	refractive index, [2]
291.15 K	923.4 ± 1.2	1.3614 ± 0.0007
298.15 K	914.35 ± 1.2	1.358 ± 0.0007

CCOC=O [ethyl methanoate] + CCCCC
Details	excess molar enthalpy [kJ/mol]	mass density [kg/m3]
[3], 291.15 K, x1 = 0.054	–	637.14 ± 0.25
[3], 291.15 K, x1 = 0.063	–	638.38 ± 0.26
[3], 291.15 K, x1 = 0.118	–	649.24 ± 0.28
[3], 291.15 K, x1 = 0.161	–	658.03 ± 0.3
[3], 291.15 K, x1 = 0.208	–	668.06 ± 0.32
[3], 291.15 K, x1 = 0.305	–	689.98 ± 0.36
[3], 291.15 K, x1 = 0.35	–	701.21 ± 0.38
[3], 291.15 K, x1 = 0.405	–	715.14 ± 0.42
[3], 291.15 K, x1 = 0.499	–	741.07 ± 0.48
[3], 291.15 K, x1 = 0.595	–	769.91 ± 0.57
[3], 291.15 K, x1 = 0.656	–	789.59 ± 0.64
[3], 291.15 K, x1 = 0.751	–	822.65 ± 0.77
[3], 291.15 K, x1 = 0.794	–	838.31 ± 0.83
[3], 291.15 K, x1 = 0.85	–	859.54 ± 0.93
[3], 291.15 K, x1 = 0.895	–	877.8 ± 1
[3], 291.15 K, x1 = 0.941	–	896.94 ± 1.1
[3], 291.15 K, x1 = 1	–	923.4 ± 1.2
[3], 298.15 K, x1 = 0.058	–	631.15 ± 0.27
[3], 298.15 K, x1 = 0.101	–	639.36 ± 0.26
[3], 298.15 K, x1 = 0.104	–	639.54 ± 0.26
[3], 298.15 K, x1 = 0.196	–	658.7 ± 0.31
[3], 298.15 K, x1 = 0.252	–	670.7 ± 0.33
[3], 298.15 K, x1 = 0.304	–	682.9 ± 0.36
[3], 298.15 K, x1 = 0.405	–	708.3 ± 0.41
[3], 298.15 K, x1 = 0.496	–	733.3 ± 0.48
[3], 298.15 K, x1 = 0.609	–	766.9 ± 0.58
[3], 298.15 K, x1 = 0.702	–	797.1 ± 0.69
[3], 298.15 K, x1 = 0.801	–	832.2 ± 0.83
[3], 298.15 K, x1 = 0.858	–	854.37 ± 0.93
[3], 298.15 K, x1 = 0.909	–	875.28 ± 1
[3], 298.15 K, x1 = 0.953	–	893.59 ± 1.1
[3], 298.15 K, x1 = 1	–	914.35 ± 1.2
[4], 291.15 K, x1 = 0.0907	0.455 ± 0.005	–
[4], 291.15 K, x1 = 0.1625	0.699 ± 0.006	–
[4], 291.15 K, x1 = 0.2451	0.933 ± 0.008	–
[4], 291.15 K, x1 = 0.3245	1.114 ± 0.009	–
[4], 291.15 K, x1 = 0.3983	1.229 ± 0.01	–
[4], 291.15 K, x1 = 0.4484	1.273 ± 0.011	–
[4], 291.15 K, x1 = 0.4961	1.294 ± 0.011	–
[4], 291.15 K, x1 = 0.536	1.279 ± 0.011	–
[4], 291.15 K, x1 = 0.5703	1.255 ± 0.011	–
[4], 291.15 K, x1 = 0.605	1.232 ± 0.01	–
[4], 291.15 K, x1 = 0.6447	1.179 ± 0.01	–
[4], 291.15 K, x1 = 0.6893	1.11 ± 0.009	–
[4], 291.15 K, x1 = 0.7332	1.023 ± 0.009	–
[4], 291.15 K, x1 = 0.7743	0.913 ± 0.008	–
[4], 291.15 K, x1 = 0.8244	0.776 ± 0.007	–
[4], 291.15 K, x1 = 0.874	0.613 ± 0.006	–
[4], 291.15 K, x1 = 0.9259	0.405 ± 0.005	–
[4], 291.15 K, x1 = 0.9621	0.19 ± 0.005	–
[4], 298.15 K, x1 = 0.0714	0.444 ± 0.005	–
[4], 298.15 K, x1 = 0.1517	0.804 ± 0.007	–
[4], 298.15 K, x1 = 0.2221	1.051 ± 0.009	–
[4], 298.15 K, x1 = 0.3085	1.251 ± 0.011	–
[4], 298.15 K, x1 = 0.3849	1.333 ± 0.011	–
[4], 298.15 K, x1 = 0.445	1.346 ± 0.011	–
[4], 298.15 K, x1 = 0.4999	1.354 ± 0.011	–
[4], 298.15 K, x1 = 0.5411	1.339 ± 0.011	–
[4], 298.15 K, x1 = 0.5726	1.315 ± 0.011	–
[4], 298.15 K, x1 = 0.6159	1.284 ± 0.011	–
[4], 298.15 K, x1 = 0.6668	1.228 ± 0.01	–
[4], 298.15 K, x1 = 0.7209	1.137 ± 0.01	–
[4], 298.15 K, x1 = 0.7702	1.016 ± 0.009	–
[4], 298.15 K, x1 = 0.8273	0.864 ± 0.008	–
[4], 298.15 K, x1 = 0.8813	0.67 ± 0.007	–
[4], 298.15 K, x1 = 0.9227	0.435 ± 0.005	–
[4], 298.15 K, x1 = 0.9662	0.205 ± 0.004	–

Source: the NIST ThermoML archive (doi:10.1016/j.fluid.2013.11.026)
